Values quoted from earlier work as cited in US20050014769A1, “Use of endothelin receptor antogonists for the treatment of tumour diseases” (priority 2001, published 2005).
Square brackets hold non-standard residues; d marks the D form. Peptide text beside a SMILES is read from it.

How the values were obtained:
[1] = test system: prostate cancer cell lines; conditions: in vitro; Nelson J B et al. Cancer Research 56, 663-668, 1996
melanoma cells = conditions: in vitro; AACR Abstract No. 358, 2002
[2] = test system: pancreas tumour cells (ASPC-1); conditions: in vivo; AACR Abstract No. 3365, 2000
ovarian carcinoma cells = conditions: Del Bufalo D et al., Molecular Pharmacology 61/3, 2002
[3] = test system: intestinal cancer cell lines; conditions: Ali H et al. Gut 47, 685-688, 2000
[4] = test system: HPV positive cervical carcinomas; conditions: cervical carcinoma; Venuti A et al., FASEB 14/14, 2279-2283, 2000
[5] = test system: primary ovarian carcinoma cells; conditions: Bagnato A et al. Cancer Res 59, 720-727, 1999
metastasis formation = conditions: rat metastasis model; Asham E et al. British Journal of Cancer 81/11, 2001

CCCCN(CCCC)C(=O)CN1C[C@H](c2ccc3c(c2)OCO3)[C@@H](C(=O)O)[C@@H]1c1ccc(OC)cc1 [Atrasentan]
growth of various prostate cancer cell lines [1]: inhibits the growth

COc1ccccc1Oc1c(NS(=O)(=O)c2ccc(C(C)(C)C)cc2)nc(-c2ncccn2)nc1OCCO [Bosetan]
proliferation of melanoma cells (melanoma cells): inhibits the proliferation

COc1ccccc1Oc1c(NS(=O)(=O)c2ccc(C(C)C)cn2)nc(-c2ccnc(-c3nnn[nH]3)c2)nc1OCCO [Ro 61-612/001]
proliferation of pancreas tumour cells (ASPC-1) [2]: inhibits the proliferation

CC(C)C[C@@H]1NC(=O)[C@@H](C(C)C)NC(=O)[C@@H]2CCCN2C(=O)[C@@H](CC(=O)O)NC(=O)[C@@H](Cc2c[nH]c3ccccc23)NC1=O [BQ123] (cyclo(L[dW][dD]P[dV]))
ET-1 protection against apoptosis (ovarian carcinoma cells): can be eliminated | ET-1 stimulated proliferation of intestinal cancer cell lines [3]: can be inhibited | ET-1 stimulated proliferation of tumour cells [4]: can be inhibited | proliferation of tumour cells [5]: inhibits the proliferation | metastasis formation (metastasis formation): inhibits metastasis formation
